Laboratory results published in BindingDB's records for doi:10.1021/bi5004519 (University of Pennsylvania, 2014).

Columns and labels:
Arginase [1] = molecular target: T1, Arginase (Schistosoma mansoni, UniProt Q6WVP6); experiment: ITC; conditions: pH 8.5
T1 sequence (Q6WVP6 whole entry): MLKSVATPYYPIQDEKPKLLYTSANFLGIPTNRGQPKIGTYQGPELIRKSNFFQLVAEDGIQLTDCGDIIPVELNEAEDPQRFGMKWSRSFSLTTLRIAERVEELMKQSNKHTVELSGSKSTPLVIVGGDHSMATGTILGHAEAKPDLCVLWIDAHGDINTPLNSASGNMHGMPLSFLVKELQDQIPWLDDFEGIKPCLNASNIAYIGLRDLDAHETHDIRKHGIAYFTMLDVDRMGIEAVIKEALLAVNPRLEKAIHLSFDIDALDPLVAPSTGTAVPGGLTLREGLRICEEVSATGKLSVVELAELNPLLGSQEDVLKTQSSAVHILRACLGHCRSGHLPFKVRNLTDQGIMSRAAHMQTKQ
Protocol: SmARG was dialyzed against 50 mM bicine (pH 8.5), 100 μM MnCl2, and 1.0 mM TCEP [5% (v/v) DMSO was included in the dialysis buffer when SmARG was titrated with ABH-PE and ABH-DP]. The inhibitor (ABH, 0.547 mM; NOHA, 1.097 mM; nor-NOHA, 0.443 mM; ABH-PE, 0.410 mM; ABH-DP, 0.436 mM) was dissolved in dialysis buffer.

Arginase [2] = molecular target: T1, Arginase; experiment: Archibald assay; conditions: pH 8.5
Protocol: Briefly, 0.5-50 mM L-arginine (pH 8.5) was added to a solution of 50 mM 4-(2-hydroxyethyl)piperazine-1-propanesulfonic acid (EPPS) (pH 8.5) and 100 μM MnCl2. The reaction (200 μL) was initiated by adding 1 μM SmARG at 21°C and terminated after 1 min using 30 μL of a 3:1 (v/v) concentrated acid/dye solution.

**Q.** Which Kd (Arginase [1]) does the source give for `N[C@](CCCCB(O)O)(CCN1CCCCC1)C(=O)O` here?
**A.** 260 nM

**Q.** With `N[C@@](CCCCB(O)O)(C(=O)O)C1CCN(Cc2ccc(Cl)c(Cl)c2)CC1` [(R)-2-amino-6-borono-2-[1-(3,4-dichlorobenzyl)piperidin-4-yl]hexanoic acid (ABH-DP)] as the compound, how does the Kd (Arginase [1]) read?
**A.** 540 nM

**Q.** How did the Kd (Arginase [1]) turn out when `N[C@@H](CCCCB(O)O)C(=O)O` [2(S)-amino-6-boronohexanoic acid (ABH)] was run?
**A.** 1300 nM

**Q.** And the Ki (Arginase [2])?
**A.** 1800 nM
